Reference: ChEMBL document CHEMBL1765007, “Synthesis and biological evaluation of new 2-alkylaminoethyl-1,1-bisphosphonic acids against Trypanosoma cruzi and Toxoplasma gondii targeting farnesyl diphosphate synthase” (Bioorg Med Chem, 2011)

What was measured:
Trypanosoma cruzi = assay: Antiparasitic activity against Trypanosoma cruzi amastigotes infected in gamma-irradiated vero cells assessed as growth inhibition by fluorescence assay; type: functional, organism-based; conditions: light or radiation study
Toxoplasma gondii [1] = assay: Antiparasitic activity against Toxoplasma gondii assessed as growth inhibition; type: functional, organism-based
[2] = target: T1, Farnesyl diphosphate synthase (Trypanosoma cruzi, UniProt Q8WS26); assay: Inhibition of Trypanosoma cruzi FPPS after 30 mins using [14C]IPP by scintillation counting
T1 sequence (Q8WS26 whole entry): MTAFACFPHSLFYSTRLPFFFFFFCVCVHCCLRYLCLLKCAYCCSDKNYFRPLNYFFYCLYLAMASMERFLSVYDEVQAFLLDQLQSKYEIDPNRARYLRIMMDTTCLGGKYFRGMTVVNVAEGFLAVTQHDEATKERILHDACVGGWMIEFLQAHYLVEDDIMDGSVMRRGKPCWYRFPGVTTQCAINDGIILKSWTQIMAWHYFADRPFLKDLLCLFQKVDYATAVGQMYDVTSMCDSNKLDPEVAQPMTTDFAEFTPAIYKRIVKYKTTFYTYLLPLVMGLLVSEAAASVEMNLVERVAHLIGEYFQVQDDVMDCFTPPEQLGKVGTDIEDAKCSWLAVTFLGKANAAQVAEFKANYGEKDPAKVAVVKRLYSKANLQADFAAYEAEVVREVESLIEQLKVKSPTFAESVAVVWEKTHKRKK

[3] = target: T2, Farnesyl diphosphate synthase (Toxoplasma gondii, UniProt Q197X6); assay: Inhibition of Toxoplasma gondii FPPS after 30 mins using [14C]IPP by scintillation counting
T2 sequence (Q197X6 whole entry): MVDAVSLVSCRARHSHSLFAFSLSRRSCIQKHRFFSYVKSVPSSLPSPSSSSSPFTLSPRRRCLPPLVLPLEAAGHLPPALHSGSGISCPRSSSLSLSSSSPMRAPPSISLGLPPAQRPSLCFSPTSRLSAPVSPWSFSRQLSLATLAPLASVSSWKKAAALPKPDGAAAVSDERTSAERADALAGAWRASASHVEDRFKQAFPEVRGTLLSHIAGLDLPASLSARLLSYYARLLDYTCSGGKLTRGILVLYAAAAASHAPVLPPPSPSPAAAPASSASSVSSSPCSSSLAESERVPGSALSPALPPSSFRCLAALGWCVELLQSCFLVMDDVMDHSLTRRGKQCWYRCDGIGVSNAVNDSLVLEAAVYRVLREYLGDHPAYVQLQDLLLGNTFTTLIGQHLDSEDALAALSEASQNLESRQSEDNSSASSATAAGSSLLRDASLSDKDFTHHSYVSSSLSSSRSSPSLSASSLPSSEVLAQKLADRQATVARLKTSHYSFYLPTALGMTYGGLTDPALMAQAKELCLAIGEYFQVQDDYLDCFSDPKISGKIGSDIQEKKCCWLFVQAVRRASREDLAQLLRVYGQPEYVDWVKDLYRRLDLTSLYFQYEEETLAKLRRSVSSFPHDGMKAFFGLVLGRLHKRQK

Toxoplasma gondii [4] = assay: Antiparasitic activity against Toxoplasma gondii tachyzoite expressing red fluorescence protein assessed as growth inhibition by fluorescence plate reader; type: functional, organism-based

## CCCCCCNCC(P(=O)(O)O)P(=O)(O)O
Trypanosoma cruzi
  IC50: 0.84 µM
Toxoplasma gondii [1]
  IC50: 9.37 µM

## CCCCCCCCCCCCCCNCC(P(=O)(O)O)P(=O)(O)O
Trypanosoma cruzi
  IC50: > 10 µM
[2]
  IC50: > 1 µM
[3]
  IC50: 0.292 µM
Toxoplasma gondii [4]
  IC50: 11.3 µM

## CCCCCCCCCCCCCCCCCCNCC(P(=O)(O)O)P(=O)(O)O
Trypanosoma cruzi
  IC50: > 10 µM
Toxoplasma gondii [4]
  IC50: 5.29 µM

## O=C(Cn1ccnc1[N+](=O)[O-])NCc1ccccc1 [BENZNIDAZOLE]
Trypanosoma cruzi
  IC50: 2.77 µM

## CCCCCCCCCNCC(P(=O)(O)O)P(=O)(O)O
Trypanosoma cruzi
  IC50: > 10 µM
[2]
  IC50: 0.43 µM
[3]
  IC50: 0.44 µM
Toxoplasma gondii [4]
  IC50: > 10 µM

## CCCCCCCCCCCNCC(P(=O)(O)O)P(=O)(O)O
Trypanosoma cruzi
  IC50: 5.13 µM
[2]
  IC50: 0.856 µM
[3]
  IC50: 0.868 µM
Toxoplasma gondii [4]
  IC50: > 10 µM

## CCCCCCCCCCCCNCC(P(=O)(O)O)P(=O)(O)O
Trypanosoma cruzi
  IC50: 0.67 µM
[2]
  IC50: 0.811 µM
[3]
  IC50: 0.093 µM
Toxoplasma gondii [4]
  IC50: 6.23 µM

## CCCCCCCCCCCCCCCCNCC(P(=O)(O)O)P(=O)(O)O
Trypanosoma cruzi
  IC50: 2.19 µM
Toxoplasma gondii [4]
  IC50: 4.13 µM

## O=P(O)(O)C(CNCc1ccccc1)P(=O)(O)O
Trypanosoma cruzi
  IC50: > 10 µM
[2]
  IC50: > 1 µM
Toxoplasma gondii [4]
  IC50: > 10 µM

## CCCCCCCCCCNCC(P(=O)(O)O)P(=O)(O)O
Trypanosoma cruzi
  IC50: > 10 µM
[2]
  IC50: > 1 µM
[3]
  IC50: 0.068 µM
Toxoplasma gondii [4]
  IC50: > 10 µM
